pIC50: −log10 of the molar value. Activity calls are given as the source filed them.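 The calls were made as follows: active = toxic to mouse fibroblast host cells, with IC50 below 50 µM; inactive = the rest.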
Test system: NIH-3T3 viability, ATP luminescence
Assay: murine fibroblast viability via ATP level – cell-based, murine fibroblasts, cytotoxicity control for Trypanosoma cruzi inhibitor project (AID 1159561)
Conditions: 4 days

Compound	IC50	pIC50
CCCCn1nnnc1CSc1nc(C)cc(C)c1C#N	> 50 µM (inactive)	
CCCn1c(NC(=O)Cc2ccc(Cl)cc2)nc2ccccc21	> 50 µM (inactive)	
CCOc1ccc(NC(=O)C=Cc2ccc(CC)o2)cc1		4.49
CC(C(=O)Nc1ccc(Br)cc1)N1CCN(c2ccc([N+](=O)[O-])cc2)CC1 (stereo not given)	> 50 µM (inactive)	
COc1ccc(CN(C)Cc2ccncc2)cc1-c1ccc(S(=O)(=O)NC2CCC2)s1		4.60
Cc1ccc2c(c1)-c1onc(C(=O)N3CCCCC3c3cccnc3)c1CO2 (stereo not given)		4.70
CNc1cc(Cn2c(C(=O)c3cc(C)cc(Cl)c3)c(C(C)C)c(=O)[nH]c2=O)ccn1		5.00
Cn1nc([N+](=O)[O-])nc1N1CCCCC1	> 50 µM (inactive)	
CCC(c1ccc(F)cc1)n1cncc1-c1cnn(C)c1 (stereo not given)		4.60
CC(Cn1ccnc1)NC(=O)C1CC1c1cccc(Cl)c1Cl (stereo not given)	> 50 µM (inactive)	
O=C(C1CCCCC1)N1CCN(c2nnc(-c3ccccc3)c3ccccc23)CC1	> 50 µM (inactive)	
O=c1ccn(-c2ccc([N+](=O)[O-])cc2Cl)c2ccc(F)cc12	> 50 µM (inactive)	
COc1ccc(NS(=O)(=O)c2cc(NC(=O)Cc3ccc(C)cc3)ccc2N2CCOCC2)cc1		4.60
CN1CCN(c2nc(-c3ccc(Cl)cc3)c3c(N)n(C)nc3n2)CC1		4.60
Cc1cccnc1CN1CCN(CCCOc2ccc(-c3ccc(C(N)=O)cc3)cc2)CC1		5.20
Cc1ccc(NC(=O)C(C)n2nc([N+](=O)[O-])c(Br)c2C)cc1Cl (stereo not given)		4.89
N#Cc1ccc(S(=O)(=O)N2CCC3(CCN(c4ccccc4)C3=O)CC2)cc1	> 50 µM (inactive)	
O=C(COc1ncnc2cc([N+](=O)[O-])ccc12)NC(=O)NC1CCCCC1	> 50 µM (inactive)	
Cc1c(C(C)NC(=O)Nc2cccc(Cl)c2)sc2ncnn12 (stereo not given)	> 50 µM (inactive)	
CC(=O)Nc1ccc(-c2noc(CC3CCCN(Cc4cccc(F)c4C)C3)n2)cc1 (stereo not given)		4.60

Compound	IC50	pIC50
c1cc(-c2ncc(-c3ccn[nH]3)s2)ccn1	> 50 µM (inactive)	
Cn1c(CN2CCN(c3ncc(C(F)(F)F)cc3Cl)CC2)nc2ccncc21		5.00
O=C(NCCc1ccccn1)C(c1cn[nH]c1)N1CCN(c2ccc(Cl)c(Cl)c2)CC1 (stereo not given)		4.49
CC(C)Oc1cccc(N2CCC(C(=O)N3CCCN(C(C)C)CC3)CC2)c1		4.49
O=c1[nH]ccc2ccc(-c3ccncc3)cc12	> 50 µM (inactive)	
Cc1cc(N(C)C)nc2ccc(Cc3cnc(N)nc3N)cc12		5.00
O=C(NC(c1ccc(Cl)cc1)c1cnccn1)C1CCN(C(=O)Nc2cccc(C(F)(F)F)c2)CC1 (stereo not given)		4.40
O=C(NCc1ccc(-n2cccc2)cc1)c1nc(Cn2ccc([N+](=O)[O-])n2)no1		4.30
O=C(N1CCc2ccccc2CC1)C1(C(=O)N2CCC(n3c(=O)[nH]c4ncccc43)CC2)CC1		4.40
COc1ccc(-c2nc3ccncc3c(=O)n2CCOc2ccccc2)cc1		4.49
COc1ccc(S(=O)(=O)NC(C)C)cc1Nc1ncc(-c2cccc(F)c2)cn1		5.30
COc1ccc(C(=O)N2CCC(Nc3cccnc3)C2)c(OC)n1 (stereo not given)	> 50 µM (inactive)	
Cc1cc(C#N)c([N+](=O)[O-])cc1Br		4.70
Cc1c(CNC(=O)c2ccc(Cn3cc(Cl)c([N+](=O)[O-])n3)cc2)cnn1C	> 50 µM (inactive)	
Clc1cc(Br)ccc1OCCCCn1ccnc1		4.80
O=C(NCCNc1noc(-c2ccc([N+](=O)[O-])cc2)n1)c1ccc(Cl)cc1	> 50 µM (inactive)	
O=C(NCCc1cccnc1)c1csc(-c2ccccc2)n1		4.30
COc1ccc2c(Cl)c(C(=O)N3CCC3)sc2c1Cl	> 50 µM (inactive)	
NC(=O)c1ccccc1Nc1nc(NC2CCCCC2)nc2[nH]ccc12		4.60
O=C(NC1C(=O)N(c2ccccc2)C1c1cccnc1)c1ccc(Cl)s1 (stereo not given)	> 50 µM (inactive)	
